In article doi:10.1101/2020.07.01.182642v1 (biorxiv, 2020):
One block for each compound: values may come before it.

Columns and labels:
[1] = biological target: CLK1 (full-length) (Homo sapiens, UniProt P49759); experiment: cell-based; set-up: species or system HEK293T
[2] = biological target: OXSR1 (Homo sapiens, UniProt O95747); settings: binder
[3] = biological target: CSNK1G2 (Homo sapiens, UniProt P78368); settings: binder
[4] = biological target: ADRBK2 (Homo sapiens, UniProt P35626); settings: binder
[5] = biological target: GRK5 (Homo sapiens, UniProt P34947); settings: binder
[6] = biological target: NEK9 (Homo sapiens, UniProt Q8TD19); settings: binder
[7] = biological target: PAK2 (Homo sapiens, UniProt Q13177); settings: binder
[8] = biological target: STK32B (Homo sapiens, UniProt Q9NY57); settings: binder
[9] = biological target: ADRBK1 (Homo sapiens, UniProt P25098); settings: binder
[10] = biological target: NEK11 (Homo sapiens, UniProt Q8NG66); settings: binder
[11] = biological target: PAK1 (Homo sapiens, UniProt Q13153); settings: binder
[12] = biological target: PBK (Homo sapiens, UniProt Q96KB5); settings: binder
[13] = biological target: PRKG2 (Homo sapiens, UniProt Q13237); settings: binder
[14] = biological target: STK32C (Homo sapiens, UniProt Q86UX6); settings: binder
[15] = biological target: CAMKK1 (Homo sapiens, UniProt Q8N5S9); settings: binder
[16] = biological target: TYK2 (Homo sapiens, UniProt P29597); settings: binder
[17] = biological target: SgK223 (Homo sapiens, UniProt Q86YV5); settings: binder
[18] = biological target: FGFR4 (Homo sapiens, UniProt P22455); settings: binder
Chain of FGFR4 (P22455 whole entry): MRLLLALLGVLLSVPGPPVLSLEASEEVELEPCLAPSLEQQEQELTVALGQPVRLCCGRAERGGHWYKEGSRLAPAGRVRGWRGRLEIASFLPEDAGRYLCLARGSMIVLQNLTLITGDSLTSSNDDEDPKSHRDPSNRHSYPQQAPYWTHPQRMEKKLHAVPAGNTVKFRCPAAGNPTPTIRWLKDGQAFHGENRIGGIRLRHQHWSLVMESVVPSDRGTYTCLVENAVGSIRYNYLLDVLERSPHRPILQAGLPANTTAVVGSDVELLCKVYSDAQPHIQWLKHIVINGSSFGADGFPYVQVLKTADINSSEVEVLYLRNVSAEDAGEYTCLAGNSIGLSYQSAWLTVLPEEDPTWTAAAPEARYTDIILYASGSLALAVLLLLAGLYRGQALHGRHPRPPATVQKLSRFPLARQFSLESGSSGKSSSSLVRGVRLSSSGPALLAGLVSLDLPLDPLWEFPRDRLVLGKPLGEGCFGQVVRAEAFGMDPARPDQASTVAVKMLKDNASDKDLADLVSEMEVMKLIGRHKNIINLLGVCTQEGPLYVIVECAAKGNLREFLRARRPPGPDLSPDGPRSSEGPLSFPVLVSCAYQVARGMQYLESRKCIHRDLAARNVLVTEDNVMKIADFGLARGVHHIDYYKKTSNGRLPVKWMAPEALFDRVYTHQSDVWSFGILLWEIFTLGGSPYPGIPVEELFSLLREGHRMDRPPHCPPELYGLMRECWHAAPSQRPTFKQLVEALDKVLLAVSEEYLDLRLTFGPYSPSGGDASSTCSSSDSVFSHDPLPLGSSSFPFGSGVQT

Chain of PAK2 (Q13177 whole entry): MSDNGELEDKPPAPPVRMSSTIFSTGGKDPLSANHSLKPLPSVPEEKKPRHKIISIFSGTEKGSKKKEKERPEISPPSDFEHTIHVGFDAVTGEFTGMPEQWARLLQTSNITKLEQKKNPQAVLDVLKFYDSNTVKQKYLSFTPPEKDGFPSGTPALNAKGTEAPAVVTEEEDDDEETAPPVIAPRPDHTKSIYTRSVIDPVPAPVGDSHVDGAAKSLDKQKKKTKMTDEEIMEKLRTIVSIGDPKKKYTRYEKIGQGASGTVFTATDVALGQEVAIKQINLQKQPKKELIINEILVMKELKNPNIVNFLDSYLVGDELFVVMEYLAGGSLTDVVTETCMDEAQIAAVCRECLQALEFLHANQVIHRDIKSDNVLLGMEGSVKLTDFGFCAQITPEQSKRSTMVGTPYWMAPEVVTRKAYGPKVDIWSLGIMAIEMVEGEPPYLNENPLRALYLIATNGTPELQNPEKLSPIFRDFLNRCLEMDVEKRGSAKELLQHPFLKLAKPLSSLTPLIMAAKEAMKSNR
Chain of PAK1 (Q13153 whole entry): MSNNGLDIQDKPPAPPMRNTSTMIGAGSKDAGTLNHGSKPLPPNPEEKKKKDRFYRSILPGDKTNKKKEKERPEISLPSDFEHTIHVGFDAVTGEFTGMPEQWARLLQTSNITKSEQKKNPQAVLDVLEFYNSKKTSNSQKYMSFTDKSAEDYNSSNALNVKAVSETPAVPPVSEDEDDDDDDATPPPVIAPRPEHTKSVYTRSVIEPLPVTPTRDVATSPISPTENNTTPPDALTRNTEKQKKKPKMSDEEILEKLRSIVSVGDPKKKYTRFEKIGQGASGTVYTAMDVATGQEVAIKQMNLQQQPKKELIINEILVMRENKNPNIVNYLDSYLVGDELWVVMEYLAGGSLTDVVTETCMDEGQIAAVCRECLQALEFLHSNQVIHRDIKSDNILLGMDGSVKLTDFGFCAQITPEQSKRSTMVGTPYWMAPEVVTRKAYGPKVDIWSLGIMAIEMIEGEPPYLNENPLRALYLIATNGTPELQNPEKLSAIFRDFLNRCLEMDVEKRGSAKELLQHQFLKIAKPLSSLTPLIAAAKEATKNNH
Chain of PBK (Q96KB5 whole entry): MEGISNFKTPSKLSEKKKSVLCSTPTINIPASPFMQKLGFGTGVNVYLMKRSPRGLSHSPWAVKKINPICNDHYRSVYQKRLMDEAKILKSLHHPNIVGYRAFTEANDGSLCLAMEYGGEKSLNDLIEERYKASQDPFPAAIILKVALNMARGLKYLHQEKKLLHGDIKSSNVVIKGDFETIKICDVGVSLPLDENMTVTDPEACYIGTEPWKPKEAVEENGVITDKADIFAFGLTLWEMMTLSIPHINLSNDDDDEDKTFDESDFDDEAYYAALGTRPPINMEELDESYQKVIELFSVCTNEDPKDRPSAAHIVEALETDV
Chain of ADRBK1 (P25098 whole entry): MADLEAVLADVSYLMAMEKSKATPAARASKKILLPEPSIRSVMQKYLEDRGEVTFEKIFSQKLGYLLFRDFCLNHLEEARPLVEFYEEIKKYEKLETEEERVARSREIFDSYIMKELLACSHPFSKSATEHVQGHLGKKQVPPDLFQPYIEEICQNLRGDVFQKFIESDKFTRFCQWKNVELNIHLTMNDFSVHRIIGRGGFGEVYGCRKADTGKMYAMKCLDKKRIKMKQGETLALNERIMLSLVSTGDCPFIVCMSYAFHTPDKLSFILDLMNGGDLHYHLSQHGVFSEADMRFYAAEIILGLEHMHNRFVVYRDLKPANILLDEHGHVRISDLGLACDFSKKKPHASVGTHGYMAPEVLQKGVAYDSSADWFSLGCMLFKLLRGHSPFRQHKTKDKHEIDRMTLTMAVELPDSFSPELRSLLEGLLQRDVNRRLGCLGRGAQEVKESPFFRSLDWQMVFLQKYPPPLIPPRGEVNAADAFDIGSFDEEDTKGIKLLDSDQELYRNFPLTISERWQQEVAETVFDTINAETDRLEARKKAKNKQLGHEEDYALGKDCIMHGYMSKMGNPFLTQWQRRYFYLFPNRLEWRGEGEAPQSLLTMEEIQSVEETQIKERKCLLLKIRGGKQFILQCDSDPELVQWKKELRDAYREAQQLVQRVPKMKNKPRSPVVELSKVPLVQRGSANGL
Chain of STK32C (Q86UX6 whole entry): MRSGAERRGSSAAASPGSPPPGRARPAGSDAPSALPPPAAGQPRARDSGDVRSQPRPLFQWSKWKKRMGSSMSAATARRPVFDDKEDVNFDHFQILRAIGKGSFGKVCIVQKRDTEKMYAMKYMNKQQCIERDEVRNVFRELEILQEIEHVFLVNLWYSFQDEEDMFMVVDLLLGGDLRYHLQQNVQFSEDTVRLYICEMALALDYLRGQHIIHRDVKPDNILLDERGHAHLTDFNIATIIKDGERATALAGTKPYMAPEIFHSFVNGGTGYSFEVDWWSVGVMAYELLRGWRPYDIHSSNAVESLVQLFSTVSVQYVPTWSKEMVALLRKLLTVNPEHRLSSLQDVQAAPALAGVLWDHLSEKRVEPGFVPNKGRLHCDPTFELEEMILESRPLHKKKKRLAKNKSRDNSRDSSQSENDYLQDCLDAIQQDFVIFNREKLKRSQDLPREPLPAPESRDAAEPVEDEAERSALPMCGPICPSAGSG
Chain of STK32B (Q9NY57 whole entry): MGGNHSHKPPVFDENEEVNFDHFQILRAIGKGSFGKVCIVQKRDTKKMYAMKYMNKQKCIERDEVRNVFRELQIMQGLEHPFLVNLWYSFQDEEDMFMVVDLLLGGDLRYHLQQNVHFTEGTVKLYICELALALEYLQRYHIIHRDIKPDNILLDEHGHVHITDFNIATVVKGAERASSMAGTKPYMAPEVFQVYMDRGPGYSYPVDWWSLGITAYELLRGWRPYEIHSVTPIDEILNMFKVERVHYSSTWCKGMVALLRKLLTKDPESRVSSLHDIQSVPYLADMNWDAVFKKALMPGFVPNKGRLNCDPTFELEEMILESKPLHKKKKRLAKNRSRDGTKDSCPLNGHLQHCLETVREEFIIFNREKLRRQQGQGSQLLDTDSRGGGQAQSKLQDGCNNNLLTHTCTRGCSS
Chain of TYK2 (P29597 whole entry): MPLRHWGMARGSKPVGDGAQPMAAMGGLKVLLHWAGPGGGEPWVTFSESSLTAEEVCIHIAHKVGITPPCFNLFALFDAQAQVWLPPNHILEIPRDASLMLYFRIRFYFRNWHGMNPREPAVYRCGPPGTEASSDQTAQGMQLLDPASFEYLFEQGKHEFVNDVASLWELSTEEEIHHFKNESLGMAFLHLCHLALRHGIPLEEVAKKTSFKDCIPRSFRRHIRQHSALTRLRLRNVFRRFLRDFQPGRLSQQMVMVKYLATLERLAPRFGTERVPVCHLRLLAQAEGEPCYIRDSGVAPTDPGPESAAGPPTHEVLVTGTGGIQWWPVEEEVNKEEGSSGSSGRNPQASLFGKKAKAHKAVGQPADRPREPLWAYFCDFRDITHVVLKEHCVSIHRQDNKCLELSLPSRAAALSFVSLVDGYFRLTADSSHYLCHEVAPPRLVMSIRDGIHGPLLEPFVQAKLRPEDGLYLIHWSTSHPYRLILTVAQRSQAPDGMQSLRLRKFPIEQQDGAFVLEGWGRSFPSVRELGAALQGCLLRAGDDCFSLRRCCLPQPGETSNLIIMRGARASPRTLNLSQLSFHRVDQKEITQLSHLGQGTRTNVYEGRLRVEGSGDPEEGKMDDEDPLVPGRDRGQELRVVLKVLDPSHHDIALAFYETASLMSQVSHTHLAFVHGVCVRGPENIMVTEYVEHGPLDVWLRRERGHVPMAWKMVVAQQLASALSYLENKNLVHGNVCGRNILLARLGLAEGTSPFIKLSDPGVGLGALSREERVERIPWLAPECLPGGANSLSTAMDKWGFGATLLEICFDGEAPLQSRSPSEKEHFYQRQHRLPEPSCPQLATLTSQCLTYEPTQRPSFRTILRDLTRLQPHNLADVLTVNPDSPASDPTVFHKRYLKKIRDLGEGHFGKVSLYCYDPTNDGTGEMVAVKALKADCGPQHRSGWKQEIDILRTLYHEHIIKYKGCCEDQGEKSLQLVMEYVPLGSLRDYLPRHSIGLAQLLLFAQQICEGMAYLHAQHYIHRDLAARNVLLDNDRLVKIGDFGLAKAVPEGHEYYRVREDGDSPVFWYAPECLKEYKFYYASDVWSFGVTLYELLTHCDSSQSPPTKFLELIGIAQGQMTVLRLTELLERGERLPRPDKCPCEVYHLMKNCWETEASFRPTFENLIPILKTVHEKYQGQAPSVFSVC

Ki [1]: 229 ± 100 nM | ΔTm inhibitor 1 [2]: 0.5 °C | ΔTm inhibitor 1 [3]: 2.5 °C
SMILES: CC(=O)c1cccc(-c2cnc3ccc(NCC4CC4)nn23)c1 [compound 1, K00135]

ΔTm inhibitor 2 [4]: -0.2 °C | ΔTm inhibitor 2 [5]: 0.8 °C | ΔTm inhibitor 2 [7]: -0.6 °C | ΔTm inhibitor 2 [8]: -0.2 °C | ΔTm inhibitor 2 [9]: 0.1 °C | ΔTm inhibitor 2 [10]: 0.6 °C | ΔTm inhibitor 2 [11]: 0.0 °C | ΔTm inhibitor 2 [12]: 0.5 °C | ΔTm inhibitor 2 [13]: -0.1 °C | ΔTm inhibitor 2 [14]: -0.9 °C | ΔTm inhibitor 2 [15]: 0.0 °C | ΔTm inhibitor 2 [16]: 0.6 °C
SMILES: CCN1/C(=C/C(C)=O)Sc2ccc(OC)cc21 [compound 2, TG003]
ΔTm inhibitor 2 [6]: 0.5 °C

ΔTm inhibitor 4 [17]: 0.4 °C | ΔTm inhibitor 4 [18]: 0.2 °C
SMILES: Nc1nccc(-c2ccc3noc(-c4ccc(Cl)cc4)c3c2)n1 [compound 4, K00972]
